# Measurements taken from US12472231B2 (priority 2020, dated 2025).
# Where a SMILES comes first, the peptide text is derived from it.
# System: A(H1N1)pdm09 virus
# Assay: microbe, parasite or virus in culture
# Assay type: cell-based
SMILES,emergence of drug-resistant virus after serial passages in presence of the agent,inhibition of P30 virus replication,inhibition of P40 virus replication,inhibition of P10 virus replication (2000 nM),inhibition of P15 virus replication (8000 nM),"IC50 (Influenza A virus, H1N1, MDCK, 24 h, read-out: IC50 against parent A(H1N1)pdm09 virus (P0)) [nM]"
CC[C@H](C)[C@H](NC(=O)[C@H](C)NC(=O)CNC(=O)[C@@H](N)CC(N)=O)C(=O)N[C@@H](CS)C(=O)N[C@@H](Cc1c[nH]c2ccccc12)C(=O)NCC(=O)N1CCC[C@H]1C(=O)N[C@@H](CS)C(=O)N1CCC[C@H]1C(=O)N[C@H](C(=O)N[C@@H](C)C(=O)N[C@@H](Cc1ccccc1)C(=O)N[C@@H](CCCNC(=N)N)C(=O)N[C@@H](CCC(N)=O)C(=O)N[C@H](C(=O)NCC(=O)N[C@@H](CC(N)=O)C(=O)N[C@@H](CS)C(=O)NCC(=O)N[C@@H](CCCNC(=N)N)C(=O)N[C@@H](Cc1ccccc1)C(=O)N[C@@H](CCCNC(=N)N)C(=O)N[C@H](C(=O)N[C@@H](CCCNC(=N)N)C(=O)N[C@@H](CS)C(=O)N[C@@H](CS)C(=O)N[C@@H](CCCNC(=N)N)C(=O)N[C@H](C(=O)N[C@@H](CCCNC(=N)N)C(=O)O)[C@@H](C)CC)C(C)C)[C@@H](C)CC)[C@@H](C)O [P9R] (H-NGAICWGPCPTAFRQIGNCGRFRVRCCRIR-OH),No obvious drug-resistant virus,could efficiently inhibit,could efficiently inhibit,,,
